Results as given in patent publication US20030040479A1, “Rotational intrathecal analgesia method and device” (Omeros Corporation, priority 2001, published 2003).

Experiments:
Assay type in all cases: in vivo
[1] = tested on: male Sprague-Dawley rats; test: Rat hindpaw withdrawal latency (HWL) to mechanical stimulation, Randall Selitto Test; conditions: for % Changes of HWL to Mechanical Stimulation: 10 minutes after intrathecal injection
[2] = tested on: male Sprague-Dawley rats; test: Rat hindpaw withdrawal latency (HWL) to thermal stimulation, hot-plate test; conditions: for % Changes of HWL to Thermal Stimulation: 10 minutes after intrathecal injection
[3] = tested on: male Sprague-Dawley rats; test: Development of tolerance to intrathecal analgesia in rat HWL tests (thermal and mechanical); conditions: intrathecal every 12 hrs
Method: A polyethylene catheter (Intramedic PE 10) was permanently implanted intrathecally with the inner tip at L3 to L5 in each animal. Rats displaying movement disorders following placement of the catheter were not used in the study. Injection volume was 10 μL of drug solution followed by 10 μL of 0.9% saline to flush the catheter. Intrathecal injections were performed every 12 hrs (morning and night).
In the morphine only group, 8 μg morphine HCl was injected every 12 hrs until complete tolerance developed and in the nociceptin only group, 10 nmol nociceptin was injected every 12 hrs until complete tolerance developed. These doses were chosen from previous studies that determined an equianalgesic dosing for these two drugs. […]
Solutions for intrathecal injection were prepared with sterilized saline (0.9%). […] The hindpaw withdrawal latency (HWL) was measured for both thermal and mechanical stimulation. […] A wedge shaped probe with a loading rate of 30 g/second was applied to the dorsal surface of the manually handled hindpaw and the mechanical stimulation required to initiate the struggle response was assessed. […] The HWLs were measured 15 min after the second intrathecal injection on a daily basis. […]

[4] = day 1, drug alone, intrathecal, text summary of both hindpaws

## CN1CC[C@]23c4c5ccc(O)c4O[C@H]2[C@@H](O)C=C[C@H]3[C@H]1C5 [Morphine, morphine]
[1]; [4]
  HWL increase using mechanical stimulation: ~55%
[1]; day 1, left hindpaw
  % Changes of HWL to Mechanical Stimulation: 53.99 ± 2.96%
[1]; day 1, right hindpaw
  % Changes of HWL to Mechanical Stimulation: 56.04 ± 3.38%
[1]; day 2, left hindpaw
  % Changes of HWL to Mechanical Stimulation: 47.69 ± 2.54%
[1]; day 2, right hindpaw
  % Changes of HWL to Mechanical Stimulation: 46.74 ± 2.52%
[1]; day 3, left hindpaw
  % Changes of HWL to Mechanical Stimulation: 33.85 ± 1.60%
[1]; day 3, right hindpaw
  % Changes of HWL to Mechanical Stimulation: 33.44 ± 1.03%
[1]; day 4, left hindpaw
  % Changes of HWL to Mechanical Stimulation: 31.37 ± 2.02%
[1]; day 4, right hindpaw
  % Changes of HWL to Mechanical Stimulation: 28.84 ± 2.73%
[1]; day 5, left hindpaw
  % Changes of HWL to Mechanical Stimulation: 15.30 ± 1.39%
[1]; day 5, right hindpaw
  % Changes of HWL to Mechanical Stimulation: 16.54 ± 1.26%
[1]; day 6, left hindpaw
  % Changes of HWL to Mechanical Stimulation: 3.26 ± 1.86%
[1]; day 6, right hindpaw
  % Changes of HWL to Mechanical Stimulation: 2.72 ± 1.94%
[2]; [4]
  HWL increase using thermal stimulation: approximately 67%
[2]; day 1, left hindpaw
  % Changes of HWL to Thermal Stimulation: 66.26 ± 2.20%
[2]; day 1, right hindpaw
  % Changes of HWL to Thermal Stimulation: 66.66 ± 1.51%
[2]; day 2, left hindpaw
  % Changes of HWL to Thermal Stimulation: 61.25 ± 3.05%
[2]; day 2, right hindpaw
  % Changes of HWL to Thermal Stimulation: 63.11 ± 0.64%
[2]; day 3, left hindpaw
  % Changes of HWL to Thermal Stimulation: 51.66 ± 1.73%
[2]; day 3, right hindpaw
  % Changes of HWL to Thermal Stimulation: 48.74 ± 2.40%
[2]; day 4, left hindpaw
  % Changes of HWL to Thermal Stimulation: 43.63 ± 1.38%
[2]; day 4, right hindpaw
  % Changes of HWL to Thermal Stimulation: 42.45 ± 1.70%
[2]; day 5, left hindpaw
  % Changes of HWL to Thermal Stimulation: 23.85 ± 1.03%
[2]; day 5, right hindpaw
  % Changes of HWL to Thermal Stimulation: 25.07 ± 2.07%
[2]; day 6, left hindpaw
  % Changes of HWL to Thermal Stimulation: −1.30 ± 2.36%
[2]; day 6, right hindpaw
  % Changes of HWL to Thermal Stimulation: 0.51 ± 1.61%
[3]
  day by which complete (total) tolerance exists: 6 days
